Where “and” joins values, the source holds several entries; their conditions need not be identical. Equal values may be shown once.

The term inhibition denotes the percentage by which the read-out fell short of the control.

For this assay, the target named is T1, Na-K-ATPase (Bos taurus, UniProt Q08DA1).
T1 construct: 86Rb uptake
As to the kind of experiment: Microassay: inhibition of ^86 Rb uptake by MDBK cell cultures. It counts as cell-based, bovine. An excerpt:
Such a cell line is available from the American Type Culture Collection, 12301 Park Lawn Drive, Rockville, Md. 20852. USA, where it is identified by the reference ATCC CCL34 (certified cell line). The preferred method of assaying bioactivity according to the present invention, described in Example II below, employs a microassay which is based upon the ability of the natriuretic compound of the present invention to inhibit ^86 Rb influx by MDBK cells grown in culture. Ouabain (10^-5 M) is used as the reference inhibitor.
The natriuretic activity of the Natriuretic Hormone can be ascertained by its effect on the uptake of ^86 Rb by MDBK ([…] Bovine Kidney Cell) cultures. […]
Approximately 200,000 MDBK cells were plated in trays containing 12 […] wells, and grown for four days at 37° C. in Dulbecco's modified Eagle media (DMEM) (Gibco #430-2100), to which was added (per liter) 3.7 g sodium bicarbonate, 5 mg phenol red, 10% fetal calf serum, 10^6 units penicillin-G sulfate, 0.1 g equivalent base streptomycin sulfate, 7.34 mg polymyxin-B sulfate, and 3.4 mg fungizone and maintained in an atmosphere of 5% CO2, 95% air. […] 0.5 ml of 5% TCA was added to each well and incubated for 10 minutes at 37° C. to release radioactivity inside the cells. […] The ^86 Rb activity was counted in a scintillation counter (Beckman LS 3-801). […] Data were recorded as cpm/mg cell protein. […]

Turning to `C[C@@H]1O[C@@H](O[C@H]2C[C@@H](O)[C@]3(CO)[C@H]4[C@H](O)C[C@]5(C)[C@@H](C6=CC(=O)OC6)CC[C@]5(O)[C@@H]4CC[C@]3(O)C2)[C@H](O)[C@H](O)[C@H]1O` [Ouabain], the “^86 Rb uptake, cpm/mg of protein” value (10^-5 M ouabain, positive control, run in duplicate) is 17,649 cpm/mg of protein and 15,611 cpm/mg of protein. Where the note is “MDBK, read-out: % inhibition of ^86 Rb uptake”, the inhibition at 10 µM amounted to 77.7%.
